Data on four molecules can be found in US9771361B2, “Inhibitors of influenza viruses replication” (priority 2013, dated 2017).

Several values for one entry are separate records, joined by “and”; a condition that tells them apart may be missing. Equal values may be shown once. Where a name gives a salt, the structure may show the parent alone. Read-outs that look alike come from different tables or passages of the source. Marks after values point to notes of the source that are not given here.

A short description of data set [1]: Water activity tests: competition slurry of Form A seeded with Form F in IPA/water. The note with it: Starting Forms A + F, Water Activity (aw) 0.9, Water wt % 2.80. Type of data set: physicochemical.
Data set [2] can be described thus: Conversion of free base Form A to hydrated form B with humidity/water activity. It counts as physicochemical. As to conditions: ambient temperature.
Data set [3] deals with Influenza A/Victoria/3/75 (H3N2) virus. It counts as in vivo, BALB/c mice.
The subject of data set [4] is Influenza A/California/04/2009 (pndH1N1) virus. It counts as in vivo, BALB/c mice.
In data set [5] the test system is influenza A. Type of data set: in vivo, mice.
For data set [6], the system named is influenza virus A/PR/8/34. Type of data set: in vivo, Balb/c mice.
The test system of data set [7] is influenza A virus. Type of data set: in vivo, mice.
Data set [8] concerns influenza virus B/Mass/3/66. It counts as in vivo, Balb/c mice.
Data set [9] concerns influenza A. Set-up: species or system mice. The note with it: mouse, in vivo.
Data set [10] has as its system influenza B virus. It counts as cell-based.
The subject of data set [11] is influenza A/Wisconsin/67/2005 (H3N2) challenge strain virus. More on the design: species or system humans. The note with it: human, in vivo.
For data set [12] the following is noted: in vivo.
For data set [13], the system named is influenza A/Wisconsin/67/2005 (H3N2) challenge strain virus. More on the design: species or system humans. As to conditions: human, in vivo. The source holds these as a separate data set.
Data set [14] shares this test system. Set-up: species or system humans. The note with it: human, in vivo. This is another data set of the same source.
For data set [15], the system named is Influenza A/Vietnam/1203/2004 (H5N1) virus. More on the design: species or system BALB/c mice. The note with it: mouse, in vivo.
Data set [16] deals with influenza virus. Set-up: species or system mice. As to conditions: mouse, in vivo.
The subject of data set [17] is influenza A strains. It counts as cell-based, influenza A virus.
The conditions of data set [18]: human, in vivo.
The mark [19] stands for this setting: 10 mg/kg per treatment, twice a day for 10 days starting 2 hours prior to virus exposure.
The mark [20] stands for this setting: Compound (1) 0 mg/kg, Oseltamivir 10 mg/kg, […].
The mark [21] stands for this setting: treatment start +48 h, 10 mg/kg BID.
The mark [22] stands for this setting: treatment start +72 h, 10 mg/kg BID.

In the case of `O=C(O)[C@H]1C2CCC(CC2)C1Nc1nc(-c2c[nH]c3ncc(F)cc23)ncc1F` (stereo partly shown) [Form A of HCl salt of Compound (1).½H2O], the “Final Form” value in [1] was “converted to Form F of HCl salt of Compound (1).3H2O”.
In the case of `O=C(O)[C@H]1C2CCC(CC2)[C@@H]1Nc1nc(-c2c[nH]c3ncc(F)cc23)ncc1F` [Form A of Compound (1)], the “water activity where the hydrate form (form B) was observed” value in data set [2] is “greater than 0.6”.
With `CCOC(=O)C1=C[C@@H](OC(CC)CC)[C@H](NC(C)=O)[C@@H](N)C1` [Oseltamivir], the Survivors/Total in data set [3] (setting [19]) is 9/10***; in data set [4] (setting [19]) it was 10/10***. Also, the survival result in data set [5] (10 mg/kg BID, same experiment) was “All of the oseltamivir-administered mice survived”. Moreover, the “Percent Body Weight Loss on Study Day 8” value in data set [5] (mouse, in vivo, 10 mg/kg) was −19.1%; in data set [7] (mouse, in vivo, 10 mg/kg), −28.9%; in [7] (setting [21]), −31.1%; in [7] (setting [22]), −31.3%. Moreover, the “Percent Survival” value turned out to be 100% in data set [5] (mouse, in vivo, 10 mg/kg); 100% in [7] (mouse, in vivo, 10 mg/kg); 80% in data set [7] (setting [21]); 0% in data set [7] (setting [22]). Besides, the “Penh (Day 3)” value in [6] (setting [20]) is on record as 2.36. In addition, the “Survival (21 days)” value is 0% in [6] (setting [20]) and 100% in [8] (setting [20]). The “Weight Loss (Day 8)” value in data set [6] (setting [20]) came to 32.0%; in data set [8] (setting [20]), 12.8%. Further, the “protection from death, BW loss and lung function” value is “did not protect from death reduce BW loss or restore lung function” in data set [6] (mouse, in vivo); “complete protection from death, reduced BW loss and restored lung function” in data set [8] (mouse, in vivo). In addition, in [8] (setting [20]), the “Penh (Day 6/7)” value turned out to be 1.08.
In the case of `O=C(O)[C@H]1C2CCC(CC2)C1Nc1nc(-c2c[nH]c3ncc(F)cc23)ncc1F` (stereo partly shown) [Compound (1)], the Survivors/Total in [3] (mouse, in vivo) is 10/10***. The Survivors/Total in [4] (mouse, in vivo) was 9/9*** and 10/10***. Also, the “reduction in lung viral titers” value in data set [9] is given as “robust, statistically significant reductions in lung viral titers”. Moreover, the “activity against influenza B virus” value in [10] is given as “limited activity”. Also, in data set [11], the “median AUC of influenza-like symptoms versus placebo” value is listed as “statistically significant reduction”, the “median duration of composite clinical symptoms versus placebo” value is on record as “statistically significant reduction” and the “median duration of influenza-like symptoms versus placebo” value is “statistically significant reduction”. In addition, the “survival and BW loss” value in data set [5] (mouse, in vivo) is “complete survival and a dose-dependent reduction in BW loss”. Further, in data set [5] (mouse, in vivo, 0.1 mg/kg), the “Percent Body Weight Loss on Study Day 8” value is −31.9% and the “Percent Survival” value worked out at 0%. Besides, in [5] (mouse, in vivo, 0.3 mg/kg), the “Percent Body Weight Loss on Study Day 8” value was −30.4% and the “Percent Survival” value was found to be 25%. Also, in data set [5] (mouse, in vivo, 1 mg/kg), the “Percent Body Weight Loss on Study Day 8” value is recorded as −16.8% and the “Percent Survival” value came out at 100%. In data set [5] (mouse, in vivo, 3 mg/kg), the “Percent Body Weight Loss on Study Day 8” value is given as −8.7% and the “Percent Survival” value stood at 100%. Also, in data set [5] (mouse, in vivo, 10 mg/kg), the “Percent Body Weight Loss on Study Day 8” value is given as −2.8% and the “Percent Survival” value is recorded as 100%. The “liver function abnormalities and serum phosphate decreases” value in data set [12] is on record as “Neither liver function abnormalities nor serum phosphate decreases were observed”. For the same molecule, the “rates of seroconversion versus placebo” value in [13] is listed as “no difference”. Moreover, in data set [14], the “AUC viral shedding versus pooled placebo” value is “statistically significant reduction”, the “dose response trend in median AUC viral shedding in nasal swabs” value is recorded as “statistically significant dose response trend”, the “improvement over placebo in viral shedding” value was “a similar magnitude of improvement over placebo was not observed” and the “peak viral shedding versus pooled placebo” value is on record as “significant reductions”. Further, the protection result in data set [15] is recorded as “complete protection”. In addition, the “correlation between lung titer reduction and Cmin” value in data set [16] was “clear correlation”. Also, the “activity against all influenza A strains tested” value in data set [17] is on record as “potent activity”. In data set [7] (mouse, in vivo), the protection entry is on record as “partial protection”; the “protection from death and BW loss” value is “complete protection from death and reduced BW loss”; the survival entry was “complete survival”. For the same molecule, the “Percent Survival” value in data set [7] (mouse, in vivo, 1 mg/kg) stood at 100%. Moreover, in [18], the “discontinuations and serious adverse events” value was “no discontinuations due to Compound (1)-related adverse events (AE) nor were there any serious adverse events”; the “elevations in alanine aminotransferase (ALT)” value is on record as “observed”; the “incidence of decreased blood phosphorus level” value is on record as 18.1%; the “incidence of nasal congestion” value was 1.4%. Also, in data set [18], the incidence of rhinorrhea is recorded as 4.2% and the tolerability result is on record as “well tolerated”. In data set [8] (mouse, in vivo), the “Penh (Day 6/7)” value is 1.90 and 2.06 and 2.04; the “Survival (21 days)” value came out at 0%; the “Weight Loss (Day 8)” value was 33.6% and 33.9% and 33%; the “activity against influenza B in vivo” value is “little activity”. Also, in [8] (mouse, in vivo), the “interference with the effectiveness of Oseltamivir” value is on record as “does not interfere with the effectiveness of Oseltamivir” and the “protection against morbidity, BW loss or loss of lung function” value is given as “no significant protection against morbidity, BW loss or loss of lung function”.
